Results reported in patent US6710168B1, “Glycopeptide antibiotics, combinatorial libraries of glycopeptide antibiotics and methods of producing same” (The Trustees of the University of Princeton, priority 1999, dated 2004).
In brackets after ≈: the same amount, converted by molar mass.

Assays:
Assay type in all cases: cell-based
[1] = tested on: Bacillus cereus (ATCC 11778); assay: MIC susceptibility test, microdilution with MTT readout; details: for MIC: Bacillus cereus, ATCC11778, read-out: MIC BC; for MIC BC: Bacillus ceres ATCC11778
Outline: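 Bacillus cereus ATCC® 11778 susceptibility was measured by broth microdilution in 96-well microplates using Cation Adjusted Mueller-Hinton broth. Samples were diluted two-fold from 5 μg/mL over 12 steps. Each well combined 100 μL of cell suspension (10^6 CFU/mL) with 100 μL of antibiotic solution and was incubated at 37° C. for 24 h. Then 50 μL of MTT (1 mg/mL) was added for 30 min, and MIC (μg/mL) was read as the lowest concentration inhibiting growth.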

[2] = tested on: Enterococcus faecalis (ATCC 29212); assay: as above; details: Enterococcus faecalis ATCC29212; for MIC: read-out: MIC EF
Outline: (§1)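 Broth microdilution in cation-adjusted Mueller-Hinton broth, 12-step two-fold series from 5 μg/mL to […], mixed 1:1 with 10^6 CFU/mL cell suspension and incubated 24 h at 37 °C. MTT (1 mg/mL solution) is then added for 30 min (S. aureus, MRSA) or 2 h (E. faecalis strains). MIC = lowest concentration inhibiting growth.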

[3] = tested on: Methicillin resistant Staphylococcus aureus (ATCC 33591); assay: as above; details: Staphylococcus aureus ATCC3359, Methicillin resistance; for MIC: ATCC 3359 / ATCC 33591 / MRSA, read-out: MIC MRSA
Outline: as §1

[4] = tested on: Staphylococcus aureus (ATCC 29213); assay: as above; details: Staphylococcus aureus ATCC29213; for MIC: read-out: MIC SA
Outline: as §1

[5] = tested on: gentamicin, streptmycin, vancomycin resistant Enterococcus faecalis (ATCC 51299); assay: microbe, parasite or virus in culture; details: for MIC: Enterococcus faecalis, ATCC51299, read-out: MIC VREF; for MIC VREF: Enterococcus faecalis ATCC51299, vancomycin resistance
Outline: as §1

[6] = tested on: Enterococcus faecium CL5137, VanA; assay: MIC susceptibility test; details: Enterococcus faecium CL5137, VanA; for MIC: read-out: MIC CL5137
[7] = tested on: Enterococcus faecalis CL5244, VanB; assay: MIC susceptibility test; details: Enterococcus faecalis CL5244, VanB; for MIC: read-out: MIC CL5244
Outline: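 MTT-based broth microdilution in cation-adjusted Mueller-Hinton broth; two-fold 12-step dilutions […], inoculum 10^6 CFU/mL, 37° C for 24 h.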

Row | SMILES | MIC [1] [µg/mL] | MIC [2] [µg/mL] | MIC [3] [µg/mL] | MIC [4] [µg/mL] | MIC [5] [µg/mL] | MIC [6] [µg/mL] | MIC [7] [µg/mL] | MIC BC [1] [µg/mL] | MIC EF [2] [µg/mL] | MIC MRSA [3] [µg/mL] | MIC SA [4] [µg/mL] | MIC VREF [5] [µg/mL] | MIC CL5137 [6] | MIC CL5244 [7] [µg/mL]
1 | CCCCCCCCCCNC1(C)CC(OC2C(Oc3c4cc5cc3Oc3ccc(cc3Cl)[C@@H](O)[C@@H](NC(=O)[C@H](CC(C)C)NC)C(=O)N[C@@H](CC(N)=O)C(=O)N[C@H]5C(=O)NC3C(=O)N[C@H](C(=O)N[C@@H](C(=O)O)c5cc(O)cc(O)c5-c5cc3ccc5O)[C@H](O)c3ccc(c(Cl)c3)O4)OC(CSc3nc4cc(Cl)ccc4s3)C(O)C2O)OC(C)C1O (stereo partly drawn) [LXXX, N-Decylvancosamine-glucose-C6-2-thio-5-chlorobenzothiazole Vancomycin] | 5 (≈ 2.82 µM) | 1.3 (≈ 0.733 µM) | 5 (≈ 2.82 µM) | > 5 | 2.5 (≈ 1.41 µM) | 50 (≈ 28.2 µM) | 2.4 (≈ 1.35 µM) |  |  |  |  |  |  | 
2 | CNC(CC(C)C)C(=O)NC1C(=O)NC(CC(N)=O)C(=O)NC2C(=O)NC3C(=O)NC(C(=O)NC(C(=O)O)c4cc(O)cc(O)c4-c4cc3ccc4O)C(O)c3ccc(c(Cl)c3)Oc3cc2cc(c3OC2OC(CNC(=O)c3ccc(-c4ccc(Cl)cc4)cc3)C(O)C(O)C2OC2CC(C)(N)C(O)C(C)O2)Oc2ccc(cc2Cl)C1O (stereo not drawn) [XXXVIII, Glucose-C6-N-4-(4-chlorophenyl)benzoyl Vancomycin] |  |  |  |  |  |  |  | 0.32 (≈ 0.192 µM) | 0.32 (≈ 0.192 µM) | 0.63 (≈ 0.379 µM) | 1.0 (≈ 0.601 µM) | 0.16 (≈ 0.0962 µM) | 50< μg/mL | 0.4 (≈ 0.241 µM)
3 | CNC(CC(C)C)C(=O)NC1C(=O)NC(CC(N)=O)C(=O)NC2C(=O)NC3C(=O)NC(C(=O)NC(C(=O)O)c4cc(O)cc(O)c4-c4cc3ccc4O)C(O)c3ccc(c(Cl)c3)Oc3cc2cc(c3OC2OC(CNC(=O)c3cnc4ccccc4n3)C(O)C(O)C2OC2CC(C)(N)C(O)C(C)O2)Oc2ccc(cc2Cl)C1O (stereo not drawn) [XXXVII, Glucose-C6-N-2-quinoxaloyl Vancomycin] |  |  |  |  |  |  |  | 0.32 (≈ 0.199 µM) | 0.32 (≈ 0.199 µM) | 0.63 (≈ 0.393 µM) | 0.32 (≈ 0.199 µM) | 0.32 (≈ 0.199 µM) | 50< μg/mL | 1.6 (≈ 0.997 µM)
4 | CN[C@H](CC(C)C)C(=O)N[C@H]1C(=O)N[C@@H](CC(N)=O)C(=O)N[C@H]2C(=O)N[C@H]3C(=O)N[C@H](C(=O)N[C@H](C(=O)O)c4cc(O)cc(O)c4-c4cc3ccc4O)[C@H](O)c3ccc(c(Cl)c3)Oc3cc2cc(c3OC2OC(CSc3nc(N)n[nH]3)C(O)C(O)C2OC2CC(C)(NCc3ccc(-c4ccc(Cl)cc4)cc3)C(O)C(C)O2)Oc2ccc(cc2Cl)[C@H]1O (stereo partly drawn) [LXXIII, Vancosamine-N-4-(4-chlorophenyl)benzyl, Glucose-C6-S-3-amino-5-mercapto-1,2,4-triazole Vancomycin] | 0.48 (≈ 0.275 µM) | 0.16 (≈ 0.0915 µM) | 1 (≈ 0.572 µM) | 1.9 (≈ 1.09 µM) | 0.08 (≈ 0.0458 µM) | 3.2 (≈ 1.83 µM) | 0.2 (≈ 0.114 µM) |  |  |  |  |  |  | 
5 | C=C1N[C@@H]2C(=O)N[C@@H](C(=O)O)c3cc(O)cc(O)c3-c3cc(ccc3O)C1NC(=O)[C@@H]1NC(=O)[C@H](CC(N)=O)NC(=O)[C@H](NC(=O)[C@H](CC(C)C)NC)[C@H](O)c3ccc(c(Cl)c3)Oc3cc1cc(c3OC1OC(CSc3nc(-c4ccccc4)c(-c4ccccc4)o3)C(O)C(O)C1OC1CC(C)(N)C(O)C(C)O1)Oc1ccc(cc1Cl)[C@H]2O (stereo partly drawn) [LXIX, Glucose-C6-2-thio-4,5-diphenyloxazole Vancomycin] | 1.3 (≈ 0.773 µM) | 0.24 (≈ 0.143 µM) | 2.5 (≈ 1.49 µM) | 1.9 (≈ 1.13 µM) | 0.32 (≈ 0.19 µM) | 50 (≈ 29.7 µM) | 0.6 (≈ 0.357 µM) |  |  |  |  |  |  | 
6 | CNC(CC(C)C)C(=O)NC1C(=O)NC(CC(N)=O)C(=O)NC2C(=O)NC3C(=O)NC(C(=O)NC(C(=O)O)c4cc(O)cc(O)c4-c4cc3ccc4O)C(O)c3ccc(c(Cl)c3)Oc3cc2cc(c3OC2OC(CO)C(O)C(O)C2OC2CC(C)(NCc3ccc(-c4ccc(Cl)cc4)cc3)C(O)C(C)O2)Oc2ccc(cc2Cl)C1O (stereo not drawn) [N-4-(4-chlorophenyl)benzyl vancomycin, reference compound] |  |  |  |  |  |  |  | 0.08 (≈ 0.0485 µM) | 0.08 (≈ 0.0485 µM) | 0.08 (≈ 0.0485 µM) | 0.16 (≈ 0.097 µM) | 0.08 (≈ 0.0485 µM) | 13 µg/mL (≈ 7.88 µM) | 0.4 (≈ 0.242 µM)
7 | CN[C@@H](CC(C)C)C(=O)N[C@H]1C(=O)N[C@@H](CC(N)=O)C(=O)N[C@H]2C(=O)NC3C(=O)N[C@H](C(=O)N[C@@H](C(=O)O)c4cc(O)cc(O)c4-c4cc3ccc4O)[C@H](O)c3ccc(c(Cl)c3)Oc3cc2cc(c3OC2OC(CSc3nc4cc(OC)ccc4[nH]3)C(O)C(O)C2OC2CC(C)(N)C(O)C(C)O2)Oc2ccc(cc2Cl)[C@H]1O (stereo partly drawn) [LXV, Glucose-C6-2-thio-5-methoxybenzimidazole Vancomycin] | 0.63 (≈ 0.391 µM) | 0.63 (≈ 0.391 µM) | 2.5 (≈ 1.55 µM) | 1.9 (≈ 1.18 µM) | 2.5 (≈ 1.55 µM) | > 50 | 13 (≈ 8.07 µM) |  |  |  |  |  |  | 
8 | CN[C@@H](CC(C)C)C(=O)N[C@H]1C(=O)N[C@@H](CC(N)=O)C(=O)N[C@H]2C(=O)NC3C(=O)N[C@H](C(=O)N[C@@H](C(=O)O)c4cc(O)cc(O)c4-c4cc3ccc4O)[C@H](O)c3ccc(c(Cl)c3)Oc3cc2cc(c3OC2OC(CSc3nc(C)cc(O)n3)C(O)C(O)C2OC2CC(C)(NCc3ccc(-c4ccc(Cl)cc4)cc3)C(O)C(C)O2)Oc2ccc(cc2Cl)[C@H]1O (stereo partly drawn) [LXXXV, N-4-(4-Chlorophenyl)benzylvancosamine-glucose-C6-2-thio-4-hydroxy-6-methylpyrimidine Vancomycin] | 1.3 (≈ 0.733 µM) | 0.32 (≈ 0.18 µM) | 1.3 (≈ 0.733 µM) | 1.9 (≈ 1.07 µM) | 0.32 (≈ 0.18 µM) | 6.3 (≈ 3.55 µM) | 0.4 (≈ 0.225 µM) |  |  |  |  |  |  | 
9 | CNC(CC(C)C)C(=O)NC1C(=O)NC(CC(N)=O)C(=O)NC2C(=O)NC3C(=O)NC(C(=O)NC(C(=O)O)c4cc(O)cc(O)c4-c4cc3ccc4O)C(O)c3ccc(c(Cl)c3)Oc3cc2cc(c3OC2OC(CI)C(O)C(O)C2OC2CC(C)(NCc3ccc(-c4ccc(Cl)cc4)cc3)C(O)C(C)O2)Oc2ccc(cc2Cl)C1O (stereo not drawn) [LXXIIa, Vancosamine-N-4-(4-chlorophenyl)benzyl-glucose-C6-iodo vancomycin] |  |  |  |  |  |  |  | 0.32 (≈ 0.182 µM) | 0.16 (≈ 0.0909 µM) | 0.63 (≈ 0.358 µM) | 0.48 (≈ 0.273 µM) | 0.32 (≈ 0.182 µM) | 13 µg/mL (≈ 7.39 µM) | 0.3 (≈ 0.17 µM)
10 | CN[C@@H](CC(C)C)C(=O)N[C@H]1C(=O)N[C@@H](CC(N)=O)C(=O)N[C@H]2C(=O)NC3C(=O)N[C@H](C(=O)N[C@@H](C(=O)O)c4cc(O)cc(O)c4-c4cc3ccc4O)[C@H](O)c3ccc(c(Cl)c3)Oc3cc2cc(c3OC2OC(COS(=O)(=O)c3c(C)cc(C)cc3C)C(O)C(O)C2OC2CC(C)(NCc3ccc(-c4ccc(Cl)cc4)cc3)C(O)C(C)O2)Oc2ccc(cc2Cl)[C@H]1O (stereo partly drawn) [XLII, N-4-(4-Chlorophenyl)benzylvancosamine-glucose-C6-2-mesitylenesulfonated Vancomycin] | 1.9 (≈ 1.04 µM) | 1 (≈ 0.546 µM) | > 5 | > 5 | 1.9 (≈ 1.04 µM) | 6.3 (≈ 3.44 µM) | 0.8 (≈ 0.437 µM) |  |  |  |  |  |  | 
11 | CCCCCCCCCCNC1(C)CC(OC2C(Oc3c4cc5cc3Oc3ccc(cc3Cl)C(O)C3NC(=O)C(NC(=O)C5NC(=O)C(CC(N)=O)NC(=O)C(NC(=O)C(CC(C)C)NC)C(O)c5ccc(c(Cl)c5)O4)c4ccc(O)c(c4)-c4c(O)cc(O)cc4C(C(=O)O)NC3=O)OC(CSc3nc(N)n[nH]3)C(O)C2O)OC(C)C1O (stereo not drawn) [LXXII, Vancosamine-N-decyl-glucose-C6-S-3-amino-5-mercapto-1,2,4-triazole Vancomycin] |  |  |  |  |  |  |  | 2.5 (≈ 1.48 µM) | 0.32 (≈ 0.19 µM) | 1.9 (≈ 1.13 µM) | 3.8 (≈ 2.25 µM) | 0.32 (≈ 0.19 µM) | 6.3 µg/mL (≈ 3.73 µM) | 0.3 (≈ 0.178 µM)
12 | CN[C@@H](CC(C)C)C(=O)N[C@H]1C(=O)N[C@@H](CC(N)=O)C(=O)N[C@H]2C(=O)NC3C(=O)N[C@H](C(=O)N[C@@H](C(=O)O)c4cc(O)cc(O)c4-c4cc3ccc4O)[C@H](O)c3ccc(c(Cl)c3)Oc3cc2cc(c3OC2OC(CSc3nnc(C)c(O)n3)C(O)C(O)C2OC2CC(C)(NCc3ccc(-c4ccc(Cl)cc4)cc3)C(O)C(C)O2)Oc2ccc(cc2Cl)[C@H]1O (stereo partly drawn) [LXXXVI, N-4-(4-Chlorophenyl)benzylvancosamine-glucose-C6-2-thio-6-azathymine Vancomycin] | 0.32 (≈ 0.18 µM) | 0.12 (≈ 0.0676 µM) | 1 (≈ 0.563 µM) | 1 (≈ 0.563 µM) | 0.16 (≈ 0.0901 µM) | 3.2 (≈ 1.8 µM) | 0.4 (≈ 0.225 µM) |  |  |  |  |  |  | 
